Assay results taken from patent US12209099B2, “Azetidobenzodiazepine dimers and conjugates comprising them for use in the treatment of cancer” (MEDIMMUNE LIMITED, priority 2019, dated 2025).

These compounds were tested on carcinoma cell line NCI-N87 (assay: Cytotoxicity assay of warheads (MTS, 7 days)). Details: Homo sapiens, 168 h, NCI-N87, 7 days incubation, mean of three independent replicates.
Format: cell-based
Procedure: The potency of the molecules were measured via in vitro cytotox assays in the carcinoma cell line NCI-N87.
Solid material was dissolved in DMSO to a 2 mM stock solution, from which eight serial dilutions were made at a 1:10 ratio in DMSO and stored at −20° C. until use.
Adherent NCI-N87 cells were washed with D-PBS and detached with Trypsin-EDTA, cell density and viability were then determined in duplicate by Trypan blue exclusion assay using an automated cell counter (LUNA-II™). Cell suspension was diluted to 1×10^5 cells/ml in growth media (RPMI 1640 with Glutamax+10% (v/v) HyClone™ Fetal Bovine Serum) and vortexed before dispensing 2 mL per well into sterile 3 mL polypropylene plates. Warhead dilutions were then dispensed into the appropriate wells at 10 μl/well and mixed by repeat pipetting. For control wells 10 μl of DMSO was dispensed onto 2 mL cell suspension, and thoroughly mixed. 100 μl of each sample was then aliquoted into 2 replicate wells of a sterile flat 96-well microplate and incubated in a 37° C. CO2-gassed (5%) incubator. At the end of the incubation period time (7 days), cell viability was measured by CellTiter 96 Aqueous One (MTS) assay, which was dispensed at 20 μl/well and incubated for 4 hours at 37° C., 5% CO2. Plates were then read on an EnVision Multi-label Plate Reader (Perkin Elmer) using absorbance at 490 nm.
Cell survival percentage was calculated from the mean absorbance of the 2 replicate wells for each sample, compared to the mean absorbance in the two control wells treated with DMSO only (100%). The IC50 was determined by fitting each data set to sigmoidal dose-response curves with a variable slope using the non-linear curve fit algorithm on the GraphPad Prism software (San Diego, CA).
All the experiments in this report were carried out and tested in three independent experiments. Data are reported as the mean of the three independent replicates.

Structure (SMILES)	IC50
COc1cc2c(cc1OCCCCCOc1cc3c(cc1OC)C(=O)N1CC[C@H]1C=N3)N=C[C@@H]1CCN1C2=O [Ex1, (10aS,10a′S)-7,7′-(pentane-1,5-diylbis(oxy))bis(6-methoxy-1,10a-dihydroazeto[1,2-a]benzo[e][1,4]diazepin-4(2H)-one)]	2.2 nM
COc1cc2c(cc1OCCCOc1cc3c(cc1OC)C(=O)N1CC[C@H]1C=N3)N=C[C@@H]1CCN1C2=O [Ex2A, (10aS,10a′S)-7,7′-(propane-1,3-diylbis(oxy))bis(6-methoxy-1,10a-dihydroazeto[1,2-a]benzo[e][1,4]diazepin-4(2H)-one)]	70.1 nM
COc1cc2c(cc1OCc1cccc(COc3cc4c(cc3OC)C(=O)N3CC[C@H]3C=N4)c1)N=C[C@@H]1CCN1C2=O [Ex2B, (10aS,10a′S)-7,7′-((1,3-phenylenebis(methylene))bis(oxy))bis(6-methoxy-1,10a-dihydroazeto[1,2-a]benzo[e][1,4]diazepin-4(2H)-one)]	4.04 nM
